Measurements taken from US6946462B2, “N-monoacylated derivatives of o-phenylenediamines, their analogs and their use as pharmaceutical agents” (Hoffmann-La Roche Inc., priority 2001, dated 2005).

What was measured:
[1] = biological target: T1, rec. HDAC-1 purified from HEK 293 cells (Homo sapiens, UniProt Q13547); assay: Assay for inhibition of histone deacetylase (HDAC), quenched peptide / Lys C fluorescence; assay type: biochemical; conditions: 10 concentrations starting at 30 uM, 90 min incubation
T1 construct: made in house; host or cells: HEK 293 cells
Text: A) Assay for Inhibition of Histone Deacetylase (HDAC)
HDAC deacetylates lysines in histone H4. A 17 aa peptide with TAMRA at the C-terminus and QSY7 at the N-terminus was used as a substrate. Following deacetylation by HDAC the enzyme Lys C is able to cleave the peptide resulting in disappearence of the quench effect and a high signal. Inhibition of HDAC by compounds results in low signals because Lys C has no substrate for cleaving and the quench effect persists.
For dose response curves 10 concentrations were diluted starting at 30 uM. 10 ul compound dilution were put into each well of a 384 well plate. 10 ul HDAC (rec. HDAC-1 purified from HEK 293 cells; activity was assessed for each preparation) were added. 10 ul peptide was added (1 uM final concentration). After 90 min incubation at room temperature the reaction was stopped by addition of 20 ul test buffer including 3 ug/ml Lys C and 0.075% SDS. After overnight incubation the fluorescent signal of TAMRA was measured at absorption 544 nm, emission 590 nm by Victor 2.

[2] = tested on: SW620 colon carcinoma cells; assay: SW620 colon carcinoma xenograft in nude mice, tumor volume; assay type: in vivo, Balb/C nu/nu-mice; conditions: oral, once daily, day 8 to day 27
Experimental: Female Balb/C nu/nu-mice(n=12 per group), aged 8-10 weeks, were subcutaneously injected with […] SW620 colon carcinoma cells. On day 6, animals with tumor volumes of about 200 mm^3 were randomly assigned to treatment groups. The test compound was administered as a fine suspension in 0.5% methylcellulose with an application volume of 10 ml/kg based on actual body weights. Oral treatment started on day 8 and continued through to day 27 on a once daily, 7 times per week treatment schedule.
The volume of the tumor was determined from the following equation:
Volume of a tumor=½×(major axis)×(minor axis)2

[3] = tested on: E-cadherin expression in A549; assay: E-cadherin upregulation assay (ELISA, with WST-1 proliferation in the same well); assay type: cell-based; conditions: A549 human lung carcinoma cells; % proliferation subtracted from % E-cadherin expression; 10 concentrations starting at 40 uM; read-out: E-cadherin upregulation EC50 [μM] (Assay B)
Text: B) E-cadherin Upregulation Assay
E-cadherin as an adhesion molecule is important for connection of the cells and integrity of tissues. […] Upregulation of the protein in cells where there is insufficient E-cadherin is regarded as a marker for the differentiation of the tumor cell. This corresponds to leaving the undifferentiated tumor cell status.
The compounds described are able to upregulate expression of E-cadherin in A549. In parallel, the proliferation of the cells is examined. The activity of an E-cadherin upregulator is defined as an increase in E-cadherin expression determined by an ELISA. Cell proliferation is also determined by WST-1 in the same well.
The assay was performed in 384-well format. […] 5000 cells per well were seeded in culture medium with 10% FCS at day 1. At day 2 compounds in different concentrations starting at 40 uM were added at a final concentration of DMSO of 0.5%. At day 4, WST-1 reagent was added and absorption was measured after 45 min (450 nm/690 nm).
The medium was aspirated, 100 ul fixation solution was added per well and discarded after 30 min, followed by addition of 100 ul blocking solution. […] Absorption was measured at 405 nm.
% proliferation of cells is substracted from % E-cadherin expression resulting in Delta. The dose response curve resulting from 10 concentrations was calculated using XLfit. […]

T1 sequence (Q13547 whole entry): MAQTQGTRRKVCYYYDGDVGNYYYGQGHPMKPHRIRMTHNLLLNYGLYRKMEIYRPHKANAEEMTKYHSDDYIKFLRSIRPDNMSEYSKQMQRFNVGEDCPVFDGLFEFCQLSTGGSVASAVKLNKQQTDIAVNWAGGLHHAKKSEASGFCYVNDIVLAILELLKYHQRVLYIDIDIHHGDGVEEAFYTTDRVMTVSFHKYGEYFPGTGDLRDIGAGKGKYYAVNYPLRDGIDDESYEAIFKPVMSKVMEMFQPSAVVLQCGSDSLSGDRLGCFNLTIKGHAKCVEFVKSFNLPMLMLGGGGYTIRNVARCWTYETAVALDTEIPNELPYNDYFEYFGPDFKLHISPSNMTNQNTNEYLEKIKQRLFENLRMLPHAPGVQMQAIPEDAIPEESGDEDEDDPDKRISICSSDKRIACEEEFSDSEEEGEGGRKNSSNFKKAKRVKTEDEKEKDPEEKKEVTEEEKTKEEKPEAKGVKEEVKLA

For `Nc1ccccc1NC(=O)c1cscn1` [Compound 38, Thiazole-4-carboxylic acid (2-amino-phenyl)-amide], the IC50 [1] was 11.1 µM, the “Tumor volume (mm^3)” value ([2]; end of the study, female Balb/C nu/nu mice with s.c. SW620 tumors) was 1029.0 mm^3 and the “% inhibition vs. control” value ([2]; tumor volume at the end of the study, SW620 xenograft) was 53%. The EC50 [3] was 5.9 µM.
